The record followed here is ChEMBL document CHEMBL1201862, “PubChem BioAssay data set” (2004).

The source made the active and inactive calls.

One test addresses T1, Protein RecA (Mycobacterium tuberculosis, UniProt P9WHJ3).
T1 sequence (P9WHJ3 whole entry): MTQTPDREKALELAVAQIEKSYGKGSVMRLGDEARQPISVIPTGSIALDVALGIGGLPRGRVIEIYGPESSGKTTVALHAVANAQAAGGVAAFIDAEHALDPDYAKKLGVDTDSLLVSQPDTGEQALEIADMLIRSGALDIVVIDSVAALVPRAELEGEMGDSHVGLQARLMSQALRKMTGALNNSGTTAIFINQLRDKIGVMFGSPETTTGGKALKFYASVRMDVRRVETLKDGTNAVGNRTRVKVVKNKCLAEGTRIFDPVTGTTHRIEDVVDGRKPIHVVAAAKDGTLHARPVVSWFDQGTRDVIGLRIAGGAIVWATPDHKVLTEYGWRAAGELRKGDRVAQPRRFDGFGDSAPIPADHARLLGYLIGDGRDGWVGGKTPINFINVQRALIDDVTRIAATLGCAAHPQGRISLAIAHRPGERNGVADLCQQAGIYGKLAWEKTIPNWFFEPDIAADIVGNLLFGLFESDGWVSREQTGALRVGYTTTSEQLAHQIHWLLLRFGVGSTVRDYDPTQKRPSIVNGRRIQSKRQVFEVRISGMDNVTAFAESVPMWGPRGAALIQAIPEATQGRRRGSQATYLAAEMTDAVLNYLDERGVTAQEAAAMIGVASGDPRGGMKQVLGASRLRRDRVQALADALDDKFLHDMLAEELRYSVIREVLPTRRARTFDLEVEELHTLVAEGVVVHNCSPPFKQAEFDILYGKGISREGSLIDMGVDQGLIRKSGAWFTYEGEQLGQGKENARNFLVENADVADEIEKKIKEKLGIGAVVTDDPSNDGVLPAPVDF
The test can be described thus: Fluorescence Cell-Free Homogeneous Dose Retest to Identify Inhibitors of RecA-Intein Splicing Activity. [Related pubchem assays (depositor defined):AID2097, AID2223, AID489010, AID492950]. In kind it is functional.

For test [1], the target named is T2, Sentrin-specific protease 8 (Homo sapiens, UniProt Q96LD8).
T2 sequence (Q96LD8 whole entry): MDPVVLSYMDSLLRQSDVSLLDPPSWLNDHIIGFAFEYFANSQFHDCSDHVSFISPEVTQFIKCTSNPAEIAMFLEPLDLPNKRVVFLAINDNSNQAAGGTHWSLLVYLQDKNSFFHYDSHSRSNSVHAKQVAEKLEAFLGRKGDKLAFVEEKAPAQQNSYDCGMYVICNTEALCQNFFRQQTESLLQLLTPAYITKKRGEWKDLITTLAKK
In kind it is functional.

The target in test [2] is T3, Replicative DNA helicase DnaB (Mycobacterium tuberculosis, UniProt P9WMR3).
T3 sequence (P9WMR3 whole entry): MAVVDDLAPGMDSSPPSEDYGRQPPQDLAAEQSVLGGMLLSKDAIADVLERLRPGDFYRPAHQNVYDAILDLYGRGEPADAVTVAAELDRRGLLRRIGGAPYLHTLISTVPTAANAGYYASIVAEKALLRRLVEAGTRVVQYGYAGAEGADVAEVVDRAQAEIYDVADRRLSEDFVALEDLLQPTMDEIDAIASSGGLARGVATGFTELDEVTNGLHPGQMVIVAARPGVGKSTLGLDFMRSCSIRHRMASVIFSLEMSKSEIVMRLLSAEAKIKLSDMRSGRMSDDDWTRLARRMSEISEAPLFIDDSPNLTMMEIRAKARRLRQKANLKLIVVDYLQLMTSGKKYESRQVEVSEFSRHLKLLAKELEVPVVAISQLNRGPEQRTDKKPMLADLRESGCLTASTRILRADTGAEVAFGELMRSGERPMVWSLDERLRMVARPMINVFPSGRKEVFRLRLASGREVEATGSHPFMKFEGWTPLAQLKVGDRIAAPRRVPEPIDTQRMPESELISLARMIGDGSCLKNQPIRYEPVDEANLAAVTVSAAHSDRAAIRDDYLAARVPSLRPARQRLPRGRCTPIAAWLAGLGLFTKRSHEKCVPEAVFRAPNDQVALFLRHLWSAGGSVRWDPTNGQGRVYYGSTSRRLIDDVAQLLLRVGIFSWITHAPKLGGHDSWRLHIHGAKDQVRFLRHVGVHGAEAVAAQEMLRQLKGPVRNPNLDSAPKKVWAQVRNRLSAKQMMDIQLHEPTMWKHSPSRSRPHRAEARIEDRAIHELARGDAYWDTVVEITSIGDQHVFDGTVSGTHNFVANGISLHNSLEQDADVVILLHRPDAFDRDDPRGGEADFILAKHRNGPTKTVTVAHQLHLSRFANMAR
The test can be described thus: DnaB intein splicing inhibitors, dose response, biochemical, cell-free fluorescence (AID 449749). In kind it is functional.

In test [3] the target is T4, Apoptotic protease-activating factor 1 (Homo sapiens, UniProt O14727).
T4 sequence (O14727 whole entry): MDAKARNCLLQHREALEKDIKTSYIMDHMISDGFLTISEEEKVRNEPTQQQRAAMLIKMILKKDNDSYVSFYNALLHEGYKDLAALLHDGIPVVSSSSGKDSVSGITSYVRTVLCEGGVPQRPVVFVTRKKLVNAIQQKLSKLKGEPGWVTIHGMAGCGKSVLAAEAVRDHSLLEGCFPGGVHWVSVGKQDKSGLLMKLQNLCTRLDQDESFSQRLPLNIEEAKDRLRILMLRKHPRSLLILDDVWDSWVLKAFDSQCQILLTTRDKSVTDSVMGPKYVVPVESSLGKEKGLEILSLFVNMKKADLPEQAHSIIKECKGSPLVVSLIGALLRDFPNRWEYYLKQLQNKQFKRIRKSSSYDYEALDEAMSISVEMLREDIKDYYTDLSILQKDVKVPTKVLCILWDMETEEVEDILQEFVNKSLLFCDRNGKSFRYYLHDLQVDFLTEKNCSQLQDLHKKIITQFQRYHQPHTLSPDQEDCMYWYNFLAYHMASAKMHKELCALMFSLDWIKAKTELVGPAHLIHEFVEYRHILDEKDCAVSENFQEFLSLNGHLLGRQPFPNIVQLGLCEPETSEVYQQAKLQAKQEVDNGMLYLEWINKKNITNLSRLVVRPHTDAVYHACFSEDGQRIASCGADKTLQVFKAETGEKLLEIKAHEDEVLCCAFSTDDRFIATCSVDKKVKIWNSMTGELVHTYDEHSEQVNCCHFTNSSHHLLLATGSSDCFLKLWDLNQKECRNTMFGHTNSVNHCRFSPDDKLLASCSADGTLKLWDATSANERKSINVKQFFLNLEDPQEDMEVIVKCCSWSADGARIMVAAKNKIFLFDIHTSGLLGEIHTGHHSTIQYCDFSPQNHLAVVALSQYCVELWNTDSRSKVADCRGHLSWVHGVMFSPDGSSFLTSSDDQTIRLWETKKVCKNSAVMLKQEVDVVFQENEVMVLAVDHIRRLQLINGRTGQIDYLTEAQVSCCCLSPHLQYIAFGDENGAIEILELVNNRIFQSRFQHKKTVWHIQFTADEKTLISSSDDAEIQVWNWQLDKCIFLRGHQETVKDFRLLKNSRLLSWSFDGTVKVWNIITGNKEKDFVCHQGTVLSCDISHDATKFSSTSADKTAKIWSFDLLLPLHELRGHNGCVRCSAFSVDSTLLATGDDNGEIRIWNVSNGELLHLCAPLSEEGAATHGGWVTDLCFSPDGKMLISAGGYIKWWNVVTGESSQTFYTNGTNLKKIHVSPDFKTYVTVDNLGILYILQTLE
In kind it is functional.

In test [4] the target is Protein-tyrosine kinase 2-beta (Homo sapiens, UniProt Q14289).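 Note: potency of inhibitors of PYK2 kinase phosphorylation of poly-GT substrate.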
Sequence of Protein-tyrosine kinase 2-beta (Q14289 whole entry): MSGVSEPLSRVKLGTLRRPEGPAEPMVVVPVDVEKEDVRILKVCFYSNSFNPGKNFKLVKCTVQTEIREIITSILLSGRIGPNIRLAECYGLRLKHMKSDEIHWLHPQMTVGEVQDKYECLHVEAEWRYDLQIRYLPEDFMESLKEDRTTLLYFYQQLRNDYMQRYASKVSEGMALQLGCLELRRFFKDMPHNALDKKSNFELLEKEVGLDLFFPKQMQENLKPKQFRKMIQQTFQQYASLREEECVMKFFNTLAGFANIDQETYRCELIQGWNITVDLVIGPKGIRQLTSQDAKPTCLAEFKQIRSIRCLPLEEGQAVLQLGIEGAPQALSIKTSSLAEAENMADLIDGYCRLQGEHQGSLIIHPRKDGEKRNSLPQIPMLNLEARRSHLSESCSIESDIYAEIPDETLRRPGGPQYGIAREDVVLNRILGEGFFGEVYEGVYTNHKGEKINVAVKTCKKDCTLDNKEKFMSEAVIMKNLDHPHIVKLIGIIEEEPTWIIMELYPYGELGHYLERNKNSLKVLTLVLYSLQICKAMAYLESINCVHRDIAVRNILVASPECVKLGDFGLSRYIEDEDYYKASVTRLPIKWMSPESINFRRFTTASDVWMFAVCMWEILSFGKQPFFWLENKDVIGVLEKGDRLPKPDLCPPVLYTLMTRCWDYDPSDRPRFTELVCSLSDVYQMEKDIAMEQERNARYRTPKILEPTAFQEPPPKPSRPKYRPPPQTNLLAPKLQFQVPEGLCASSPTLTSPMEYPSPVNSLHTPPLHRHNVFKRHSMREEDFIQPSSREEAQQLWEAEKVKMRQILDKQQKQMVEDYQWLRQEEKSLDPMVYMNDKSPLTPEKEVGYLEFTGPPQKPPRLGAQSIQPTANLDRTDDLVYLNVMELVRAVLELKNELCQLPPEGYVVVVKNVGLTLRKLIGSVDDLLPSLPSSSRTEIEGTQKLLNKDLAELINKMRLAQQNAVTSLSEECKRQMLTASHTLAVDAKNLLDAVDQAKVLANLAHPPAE
Test [5] addresses T2, Sentrin-specific protease 8. In kind it is functional. This is another data set of the same source.
The nature of test [6]: viability loss of HPDE-C7K cells – cell-based, fluorescence, HTS, primary screen (AID 431). In kind it is functional. As to conditions: Homo sapiens.
Test [7] can be described thus: HPDE-C7 pancreatic duct cell viability loss – fluorescence, HTS (AID 430). To be noted: Homo sapiens. The class given is functional, cell-based.

In the case of `O=C1Cc2ccccc2C(=O)N1CCc1ccccc1`, on Protein RecA, the half-maximal effective concentration (EC50) is 2.99 µM (active). The IC50 in test [1] is 2.89 µM (active); in test [3] it was 4.03 µM (active); in test [4], > 69.5 µM (not active); in test [5] it was 0.148 µM (active). In addition, the AC50 in test [2] was 2.17 µM (active).

Turning to `COCCNC(=O)c1c(N)n(CCC2=CCCCC2)c2nc3ccccc3nc12`, the EC50 in test [6] and in test [7] was > 20 µM (not active) throughout.
